Reference: PMC5395182, “Soaking suggests “alternative facts”: Only co-crystallization discloses major ligand-induced interface rearrangements of a homodimeric tRNA-binding protein indicating a novel mode-of-inhibition” (PLoS ONE, 2017)
“Also recorded” adds a separate entry of the source. Read-outs that look alike come from different tables or passages of the source.

Columns and labels:
Z. mobilis TGT [1] = biological target: T1, Z. mobilis TGT (Zymomonas mobilis subsp. mobilis, UniProt P28720); assay: TGT-catalyzed incorporation of radio-labeled guanine into tRNA (inhibition constants); assay type: biochemical
T1 construct: Strep-tag II (N, cleaved yes); made in house; host or cells: Escherichia coli
T1 sequence (P28720 whole entry): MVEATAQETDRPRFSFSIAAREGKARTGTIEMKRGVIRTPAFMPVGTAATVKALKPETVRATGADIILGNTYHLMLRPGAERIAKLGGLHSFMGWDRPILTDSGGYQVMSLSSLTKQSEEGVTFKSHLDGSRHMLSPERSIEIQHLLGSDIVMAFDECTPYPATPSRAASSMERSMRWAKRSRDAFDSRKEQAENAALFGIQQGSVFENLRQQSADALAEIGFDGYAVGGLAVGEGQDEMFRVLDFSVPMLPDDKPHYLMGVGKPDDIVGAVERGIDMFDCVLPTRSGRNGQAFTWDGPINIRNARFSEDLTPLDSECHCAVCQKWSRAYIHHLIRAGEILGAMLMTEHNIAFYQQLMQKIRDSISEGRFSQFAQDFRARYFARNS
Procedure: The inhibition constants (Ki) of ligands 1 to 9, which are listed in Fig 2, were determined previously (except that of 4, which was determined in this study)[19, 20, 23, 26] via a well-established assay monitoring the TGT-catalyzed incorporation of radio-labeled guanine into tRNA. […] This substituent addresses the ribose-33/uracil-33 pocket by forming an H-bond to the main chain carbonyl of Ala232 (Fig 1 and S3 and S4 Figs).
The concentration of Z. mobilis TGT amounted to 9 nM, [8-^3H]-guanine was used at a (saturating) concentration of 10 μM and tRNA^Tyr at a concentration of 1.5 μM. Aliquots of 15 μL were withdrawn for scintillation counting every 60 minutes (in total four).
The Ki value was averaged over three measurements. The preparation of E.coli tRNA^Tyr (ECYC2) via in vitro transcription was carried out using the RiboMAX™ Large Scale RNA Production System-T7 (Promega) according to the vendor´s protocol.

TGT homodimer = test system: T2, TGT homodimer; assay: Native ESI-MS of TGT:ligand 1:10 mixtures (dimer destabilization); design: species or system Zymomonas mobilis; conditions: for Relative proportion of TGT monomers: 2.5 µM TGT and 25 µM inhibitor (1:10), 1 M NH4Ac pH 7.5, without ligand 3.3 ± 0.7 %; for effect on TGT dimer stability / monomer proportion, in words: compared to measurements in the absence of any ligand, TGT:ligand 1:10
T2 construct: Strep-tag II (N, cleaved yes); made in house; host or cells: Escherichia coli
Procedure: In order to gain insights into the dimer disturbing potential seen in the crystal structures with the different ligands and to collect evidence for such a behavior also present in solution, native ESI-MS was performed. This technique enables to monitor the oligomerization state of TGT at equilibrium under non-denaturing conditions, in the absence or presence of saturating ligand concentrations. […] To ensure reliability, these comparative experiments were thus carried out adhering to strictly similar conditions (see Materials and methods).
Relative proportions of TGT-monomer signals extracted from individual 1:10 TGT:ligand mixtures (TGT monomer 2.5 μM) were quantified (S7 Fig, S1 Table) and normalized with respect to this value in the absence of any inhibitor.
Nano-ESI-MS analyses were performed as already described in the literature. Briefly, WT-TGT samples were exchanged twice against a 1 M ammonium acetate pH 7.5 buffer using microcentrifuge gel-filtration columns (Zeba 0.5 mL, Thermo Scientific). Next, protein concentration was determined spectrophotometrically at 280 nm (Nano-Drop 2000 spectrophotometer, Thermo Scientific).
Native MS experiments were carried out on a hybrid Q-TOF mass spectrometer (Synapt G2 HDMS, Waters) equipped with an automated chip-based nanoESI source (Triversa Nanomate, Advion Biosciences) operating in the positive ion mode. External calibrations were generated from the multiple charged ions produced by a 2 μM horse heart myoglobin solution diluted in a 1:1 (v/v) water: acetonitrile mixture acidified with 1% (v/v) formic acid (denaturing MS) and singly charged cesium iodide clusters diluted to 2 g∙L^-1 in a 1:1 (v/v) water: isopropanol solution (native MS).
Titration experiments in native conditions (1 M NH4Ac pH 7.5) were next triggered by mixing 2.5 μM TGT monomers with 25 μM of each ligand separately (ratio 1:10). The final DMSO concentration of each mixture never exceeded 0.25% (v/v). Non-covalent TGT dimers and TGT-ligand complexes were preserved in the gas phase according fine-tuned instrumental parameters, improving ion desolvation and transmission while maintaining intact structures (Vc = 80V, Pi = 6 mbar).
Relative quantification of TGT monomers was performed from charge states peak intensities of both monomeric (10 to 14+) and dimeric complexes (15 to 20+), using MassLynx 4.1 (Waters). TGT dimer disruption was determined for each ligand through their destabilization factor (Fig 8) which corresponds to their associated ratio of TGT monomers normalized from the apo-condition (S7 Fig; S1 Table). Standard deviations are calculated here from analytical triplicates. For the sake of reliability and comparability, all these experiments were performed within the same day, from identical experimental and instrumental conditions using the same buffer exchanged TGT batch (frozen and thawed only once).

Z. mobilis TGT [2] = biological target: T1, Z. mobilis TGT; conditions: cited from earlier work
Z. mobilis TGT [3] = biological target: T1, Z. mobilis TGT; design: method as in PMID 24955548; conditions: cited from earlier work
[4] = Ligand dilution in native MS buffer (precipitation); assay type: physicochemical; conditions: 1 M NH4Ac pH 7.5
[5] = ionization corrected, data for 1 determined previously

factor by which 1 is more potent than 3 (Z. mobilis TGT [1]; radio-labeled assay, Ki ratio 1 vs 3)	Ki (Z. mobilis TGT [1]; determined in this study, competitive with respect to tRNA substrate, averaged over three measurements) [nM]	SMILES	Relative proportion of TGT monomers (TGT homodimer) [%]	effect on TGT dimer stability / monomer proportion, in words (TGT homodimer)	increase of affinity compared to the unsubstituted lin-benzoguanine (factor) (Z. mobilis TGT [2]; Ki ratio)	Ki (Z. mobilis TGT [2]) [nM]	-TΔS^0 (Z. mobilis TGT [3]; HEPES buffer)	ΔH^0obs (Z. mobilis TGT [3]; HEPES buffer)	Kd (Z. mobilis TGT [3]; ITC, 298 K) [nM]	ΔG^0 (Z. mobilis TGT [3]; ITC)	-TΔS^0 (Z. mobilis TGT [3]; TRIS buffer)	ΔH^0obs (Z. mobilis TGT [3]; TRIS buffer)	-TΔS^0 (Z. mobilis TGT [3]; Tricin buffer)	ΔH^0obs (Z. mobilis TGT [3]; Tricin buffer)	-TΔS^0 (Z. mobilis TGT [3]; [5]) [kJ/mol]	ΔH^0bind (Z. mobilis TGT [3]; [5]) [kcal/mol]	protons picked up during binding (Z. mobilis TGT [3]; slope of linear regression)	precipitation upon ligand dilution in buffer [4]
6	–	CNc1nc2cc3nc(N)[nH]c(=O)c3cc2[nH]1 [Inhibitor 1]	3.4	No effect on dimer stability	70	58 ± 36	34.2 ± 1.9^29 kJ∙mol^-1	-74.8 ± 1.8^29 kJ∙mol^-1	52 ± 7	-41.6 ± 0.3^29 kJ∙mol^-1	9.3 ± 0.9^29 kJ∙mol^-1	-50.9 ± 0.9^29 kJ∙mol^-1	25.1 ± 0.3^29 kJ∙mol^-1	-66.7 ± 0.1^29 kJ∙mol^-1	52.0	-22.4	0.89 protons per mole of the formed complex	–
–	193 ± 41	CNc1nc2c(CCNCC3CCC(C#Cc4cccnc4)CC3)c3nc(N)[nH]c(=O)c3cc2[nH]1 (centres unmarked) [Inhibitor 4]	5.6	small effect might be given	–	–	–	–	–	–	–	–	–	–	–	–	–	partial precipitation; also recorded: To a lower extent, a similar phenomenon was also observed
